Marks after values point to notes of the source that are not given here.
Legend:
[1] = Carcass characteristics of steers, Composition versus Monensin (Example 3); format: in vivo; conditions: Monensin 223 mg/head/day, Composition 500 ppm in total feed, treatments differ P < 0.05
Description: The two groups were treated with Monensin (223 mg/head/day) and the Composition (500 ppm in total feed). Monensin is the antibiotic used in the industry as a standard to affect microbial populations in the rumen of the animals. The change in microbial populations in the rumen shifts the fermentation end products, which results in an improvement in the energy efficiency of the animal. By comparing the Composition to the industry standard, the effects due to changes in microbial populations can be deleted. Therefore, if differences were found between Monensin treated animals and the Composition treated animals, those differences would not arise from the antimicrobial effects, as both products inhibit the same type of bacteria (gram positive). The Composition was 40% cashew nut shell liquid, 12% castor oil and 48% expanded vermiculite. Dressing percent is the percentage of the carcass in relation to the total weight of the animal. Carcass quality grade goes from 1 to 9 to indicate, in increasing order, the amount of intramuscular fat. Meats with higher levels of intramuscular fat are more tender and, therefore, more expensive. Also, as the amount of energy found per unit of fat is twice as much as the amount of energy found per unit of carbohydrate and […], meats with more intramuscular fat are more energy dense than […]. […]

[2] = rats, supplemented vs non-supplemented animals; cited from earlier work

## CC[C@@]1([C@@H]2O[C@@H]([C@H]3O[C@@](O)(CO)[C@H](C)C[C@@H]3C)C[C@@H]2C)CC[C@H]([C@]2(C)CC[C@]3(C[C@H](O)[C@@H](C)[C@@H]([C@@H](C)[C@@H](OC)[C@H](C)C(=O)O)O3)O2)O1 [Monensin]
[1]; grade from 1 to 9, increasing intramuscular fat, steers fed from 322 kg to 617 kg
  Carcass quality grade: 3.18^a
[1]; steers fed from 322 kg to 617 kg live weight
  Dressing percent (percentage of the carcass in relation to the total weight of the animal): 60^a percent

## CCCCCCCCCCCCCCCc1cccc(O)c1C(=O)O [anacardic acid]
[2]
  effects on feed efficiency: no differences
